Experimental findings from US20220153732A1, “PROTEIN SECRETION INHIBITORS” (KEZAR LIFE SCIENCES, priority 2019, published 2022) are described below.

Where two headings read alike, the source gives them in different places.

What all share (format): cell-based
Test [1] concerns IL-2-FL/Gaussia Luciferase. In words: Dox Induced IL2-FL-Gluc Assay. Conditions: 293FRT/TO cells, read-out: 24 hr Dox Inducible IL2FLGIuc 293FRT/TO: Mean IC50. The procedure: (§1) Transfected cells were selected for resistance to the selectable markers Hygromycin and Blasticidin to create a stable cell line that contained the IL-2-FL/Gaussia Luciferase cDNA insert whose expression was regulated under the T-RExTM system. The day before assay, cells were trypsinized and plated in 384-well tissue culture plates. The next day, compound dilutions in DMSO/media containing doxycycline were added to the wells and incubated at 37° C., 5% CO2. […] For chemical structures that include one or more stereoisomers, but are illustrated without indicating stereochemistry, the assay data refers to a mixture of stereoisomers.

The test system of test [2] is PD1-ss+10aa/Gaussia Luciferase. The test is described as follows: Dox-Induced PD1-ss-Gluc Assay. Conditions: 293FRT/TO cells, read-out: 24 hr Dox Inducible PD1ssGluc 293FRT/TO: Mean IC50. The procedure:
Transfected cells were selected for resistance to the selectable markers Hygromycin and Blasticidin to create a stable cell line that contained the PD1-ss+10aa/Gaussia Luciferase cDNA insert whose expression was regulated under the T-REx™ system. The day before assay, cells were trypsinized and plated in 384-well tissue culture plates. The next day, compound dilutions in DMSO/media containing doxycycline were added to the wells and incubated at 37° C., 5% CO2.
(§2) For chemical structures that include one or more stereoisomers, but are illustrated without indicating stereochemistry, the assay data refers to a mixture of stereoisomers.

In test [3] the test system is HER3-ss+4aa/Gaussia Luciferase. The test is described as follows: Dox-Induced Her3-ss-Gluc Assay. As to conditions: 293FRT/TO cells, read-out: 24 hr Dox Inducible Her3(ss + 4)Gluc 293FRT/TO: Mean IC50. How it is done:
Transfected cells were selected for resistance to the selectable markers Hygromycin and Blasticidin to create a stable cell line that contained the HER3-ss+4aa/Gaussia Luciferase cDNA insert whose expression was regulated under the T-REx™ system. The day before assay, cells were trypsinized and plated in 384-well tissue culture plates. The next day, compound dilutions in DMSO/media containing doxycycline were added to the wells and incubated at 37° C., 5% CO2.
as §2

Test [4] concerns human multiple myeloma cell line NCI-H929. In words: H929 Cell Viability Assay. As to conditions: 48 hr, NCI-H929 cells, Celltiter-Glo, read-out: 48 hr H929 Viability Celltiter-Glo: Mean EC50. How it is done:
Plates were incubated at 37° C., 5% CO2 for 48 hours. After 48 hours, Celltiter-Glo® (Promega) was added to each well and luciferase signal was quantified using Tecan Infinite M1000 Pro for cell viability determination.
as §2

The subject of test [5] is TNFα-FL/Gaussia Luciferase. The test is described as follows: Dox Induced TNFα-FL-Gluc Assay. As to conditions: 293FRT/TO cells, read-out: 24 hr Dox Inducible TNFaFLGluc 293FRT/TO: Mean IC50. How it is done: as §1, with “TNFα-FL/Gaussia” for “IL-2-FL/Gaussia”
For test [6], the system named is human multiple myeloma cell line U266B1. The test is described as follows: U266 Cell Viability Assay. Conditions: U-266, 48 hr, U266B1 cells, Celltiter-Glo, read-out: 48 hr U266 Viability Celltiter-Glo: Mean EC50. How it is done:
Cells were plated in 384-well tissue culture plates and treated with compound dilutions in DMSO/media. Plates were incubated at 37° C., 5% CO2 for 48 hours. After 48 hours, Celltiter-Glo® (Promega) was added to each well and luciferase signal was quantified using Tecan Infinite M1000 Pro for cell viability determination.
as §2

Setting [7] is: 24 hr doxycycline induction, Gaussia luciferase signal.

Regarding `O=C(Nc1nc(CCc2cccc(Cl)c2)cs1)c1cccn1Cc1ccncc1` [Compound A179], the IC50 in test [1] (setting [7]) stood at 1170 nM; in test [2] (setting [7]), 211 nM; in test [3] (setting [7]), 541 nM; in test [5] (setting [7]), 3.58 µM. Also, the figures for the concentration for a half-maximal effect (EC50) in test [4] and in test [6] were 5.75 µM and 10.6 µM, respectively.

On to `CC(C)OC(C)(C)c1csc(NC(=O)c2cccn2CC2CCN(C)CC2)n1` [Compound A129, N-(4-(2-isopropoxypropan-2-yl)thiazol-2-yl)-1-((1-methylpiperidin-4-yl)methyl)-1H-pyrrole-2-carboxamide], for which the IC50 in test [1] (setting [7]) is greater than 25000 nM; in test [2] (setting [7]), greater than 25000 nM; in test [3] (setting [7]), greater than 25000 nM; in test [5] (setting [7]) it was greater than 25 µM. Moreover, the concentration for a half-maximal effect (EC50) in test [4] and in test [6] was greater than 25 µM in each case.

With `CC(C)(C)c1csc(NC(=O)c2cccn2Cc2ccccc2)n1` [Compound B27, 1-benzyl-N-(4-(tert-butyl)thiazol-2-yl)-1H-pyrrole-2-carboxamide], the IC50 was greater than 25000 nM in test [1] (24 hr, doxycycline-induced); greater than 25000 nM in test [2] (24 hr, doxycycline-induced); greater than 25000 nM in test [3] (24 hr, doxycycline-induced); greater than 25 µM in test [5] (24 hr, doxycycline-induced). In addition, the EC50 in test [4] and in test [6] was greater than 25 µM each time.

For `Cc1nc(NC(=O)c2cccn2Cc2ccncc2)sc1F` [Compound A42], the IC50 in test [1] (setting [7]) is 3790 nM; in test [2] (setting [7]), 939 nM; in test [3] (setting [7]), 2180 nM; in test [5] (setting [7]), greater than 25 µM. Further, the concentration giving a half-maximal response (EC50) in test [4] and in test [6] was greater than 25 µM throughout.

For `O=C(Nc1nc(/C=C/c2ccc(Cl)cc2)cs1)c1cccn1Cc1ccncc1` [Compound A163, N-(4-(4-chlorostyryl)thiazol-2-yl)-1-(pyridin-4-ylmethyl)-1H-pyrrole-2-carboxamide], the IC50 in test [1] (setting [7]) turned out to be 652 nM; in test [2] (setting [7]), 59 nM; in test [3] (setting [7]) it was 305 nM; in test [5] (setting [7]) it was 2.47 µM. The results for the concentration giving a half-maximal response (EC50) in test [4] and in test [6] were 7.61 µM and 24.5 µM, respectively.

On to `O=C(Nc1nc([C@H]2CC(F)(F)CN2c2ccccc2)cs1)c1cccn1Cc1ccncc1` [Compound A339], for which the IC50 in test [1] (24 hr, doxycycline-induced) stood at 13 nM; in test [2] (24 hr, doxycycline-induced), 18 nM; in test [3] (24 hr, doxycycline-induced), 29 nM; in test [5] (24 hr, doxycycline-induced) it was 0.226 µM. Besides, the EC50 in test [4] is 1.31 µM; in test [6] it was greater than 25 µM.

Consider `Cc1sc(NC(=O)c2cccn2Cc2ccncc2)nc1C(C)OC(C)C` (stereo not drawn) [Compound A20, N-(4-(1-isopropoxyethyl)-5-methylthiazol-2-yl)-1-(pyridin-4-ylmethyl)-1H-pyrrole-2-carboxamide], for which the IC50 in test [1] (setting [7]) was found to be 351 nM; in test [2] (setting [7]) it was 248 nM; in test [3] (setting [7]) it was 510 nM; in test [5] (setting [7]), 7.17 µM. Moreover, the EC50 in test [4] and in test [6] was greater than 25 µM throughout.

As for `COc1cccc(C#Cc2csc(NC(=O)c3cccn3Cc3ccncc3)n2)c1` [Compound A142], the IC50 turned out to be 1050 nM in test [1] (setting [7]), 241 nM in test [2] (setting [7]), 565 nM in test [3] (setting [7]) and 5.41 µM in test [5] (setting [7]). The EC50 in test [4] and in test [6] was greater than 25 µM in each case.

Regarding `CC(C)OC(C)(C)c1csc(NC(=O)c2cccn2CC2CCOCC2)n1` [Compound A71], the IC50 is 3540 nM in test [1] (setting [7]), 2280 nM in test [2] (setting [7]), 5440 nM in test [3] (setting [7]) and greater than 25 µM in test [5] (setting [7]). Also, the EC50 in test [4] and in test [6] was greater than 25 µM each time.

In the case of `Cc1cc(NC(=O)c2cccn2Cc2ccncc2)no1` [Compound B8, N-(5-methylisoxazol-3-yl)-1-(pyridin-4-ylmethyl)-1H-pyrrole-2-carboxamide], the IC50 is greater than 25000 nM in test [1] (24 hr, doxycycline-induced); 9100 nM in test [2] (24 hr, doxycycline-induced); greater than 25000 nM in test [3] (24 hr, doxycycline-induced); greater than 25 µM in test [5] (24 hr, doxycycline-induced). In addition, the EC50 in test [4] and in test [6] was greater than 25 µM in each case.

In the case of `CO[C@H]1CCN(c2ccccc2)[C@H]1c1csc(NC(=O)c2cccn2Cc2ccncc2)n1` [Compound A334], the IC50 stood at 110 nM in test [1] (24 hr, doxycycline-induced); 80 nM in test [2] (24 hr, doxycycline-induced); 138 nM in test [3] (24 hr, doxycycline-induced); 0.775 µM in test [5] (24 hr, doxycycline-induced). Further, the figures for the concentration for a half-maximal effect (EC50) in test [4] and in test [6] were 6.47 µM and 9.05 µM, respectively.

With `CC(C)(OCc1ccc(N=[N+]=[N-])cc1)c1csc(NC(=O)c2cccn2Cc2ccncc2C#N)n1` [Compound A308], the IC50 in test [1] (24 hr, doxycycline-induced) stood at 2370 nM; in test [2] (24 hr, doxycycline-induced), 879 nM; in test [3] (24 hr, doxycycline-induced), 1690 nM; in test [5] (24 hr, doxycycline-induced), 13.5 µM. Further, the EC50 in test [4] is 17.2 µM; in test [6] it was greater than 25 µM.

Consider `O=C(Nc1nc2c(s1)COCC2)c1cccn1Cc1ccncc1` [Compound A95], for which the IC50 in test [1] (setting [7]) was greater than 25000 nM; in test [2] (setting [7]) it was 14700 nM; in test [3] (setting [7]), greater than 25000 nM; in test [5] (setting [7]) it was greater than 25 µM. In addition, the 50% effective concentration (EC50) in test [4] and in test [6] was greater than 25 µM each time.

Turning to `O=C(Nc1nc([C@H]2CCCN2c2ccccc2)cs1)c1cccn1Cc1ccncc1` [Compound A275], the IC50 was found to be 29 nM in test [1] (setting [7]), 15 nM in test [2] (setting [7]), 32 nM in test [3] (setting [7]) and 0.147 µM in test [5] (setting [7]). The EC50 in test [4] was 1.47 µM; in test [6], greater than 25 µM.

`CCc1cc(N(C)C(=O)c2cccn2Cc2ccncc2)ccc1C` [Compound B25, N-(3-ethyl-4-methylphenyl)-N-methyl-1-(pyridin-4-ylmethyl)-1H-pyrrole-2-carboxamide]: the IC50 in test [1] (24 hr, doxycycline-induced) is greater than 25000 nM; in test [2] (24 hr, doxycycline-induced), greater than 25000 nM; in test [3] (24 hr, doxycycline-induced), greater than 25000 nM; in test [5] (24 hr, doxycycline-induced) it was greater than 25 µM. The EC50 in test [4] and in test [6] was greater than 25 µM in each case.

Turning to `CCN(C(=O)c1cccn1Cc1ccncc1)c1nc(C)cs1` [Compound A98], the IC50 is greater than 25000 nM in test [1] (setting [7]), 19600 nM in test [2] (setting [7]), greater than 25000 nM in test [3] (setting [7]) and greater than 25 µM in test [5] (setting [7]). The EC50 in test [4] and in test [6] was greater than 25 µM each time.

As to `CC(C)(COc1ccccc1)c1csc(NC(=O)c2cccn2Cc2ccncc2)n1` [Compound A228], the IC50 in test [1] (setting [7]) was determined as 933 nM; in test [2] (setting [7]), 335 nM; in test [3] (setting [7]), 730 nM; in test [5] (setting [7]), 3.59 µM. The half-maximal effective concentration (EC50) was 9.25 µM in test [4] and greater than 25 µM in test [6].

As for `CC(C)OC(C)(C)c1csc(NC(=O)c2cc(CO)cn2Cc2ccncc2)n1` [Compound A113, 4-(hydroxymethyl)-N-(4-(2-isopropoxypropan-2-yl)thiazol-2-yl)-1-(pyridin-4-ylmethyl)-1H-pyrrole-2-carboxamide], the IC50 is greater than 25000 nM in test [1] (setting [7]), greater than 25000 nM in test [2] (setting [7]), greater than 25000 nM in test [3] (setting [7]) and greater than 25 µM in test [5] (setting [7]). The EC50 in test [4] and in test [6] was greater than 25 µM throughout.

Take `CC(C)(OCc1ccccc1)c1csc(NC(=O)c2cccn2Cc2ccncc2)n1` [Compound A9, N-(4-(2-(benzyloxy)propan-2-yl)thiazol-2-yl)-1-(pyridin-4-ylmethyl)-1H-pyrrole-2-carboxamide]: the IC50 in test [1] (setting [7]) was found to be 197 nM; in test [2] (setting [7]), 104 nM; in test [3] (setting [7]), 202 nM; in test [5] (setting [7]), 1.62 µM. For the same compound, the EC50 in test [4] was 9.46 µM; in test [6], greater than 25 µM.
